Results: PubChem BioAssay (NCI)
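GI50 marks 50% less growth. TGI is the concentration that stops growth completely.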

Key:
Assay in all cases: NCI anticancer screen, dose series, 384-well format
MDA-MB-435 melanoma = tested on: MDA-MB-435 melanoma
U251 glioblastoma = tested on: U251 glioblastoma
EKVX NSCLC = tested on: EKVX NSCLC
MCF7 breast = tested on: MCF7 breast
RPMI-8226 leukemia = tested on: RPMI-8226 leukemia
RXF 393 renal = tested on: RXF 393 renal
CCRF-CEM leukemia = tested on: CCRF-CEM leukemia
A498 renal = tested on: A498 renal
SF-268 CNS = tested on: SF-268 CNS
K-562 leukemia = tested on: K-562 leukemia
CAKI-1 renal = tested on: CAKI-1 renal
IGROV1 ovarian = tested on: IGROV1 ovarian
SK-MEL-2 melanoma = tested on: SK-MEL-2 melanoma

CC(=O)N1CCC(Nc2cc(C(=O)NC[C@H](O)CN3CCc4ccccc4C3)ncn2)CC1
GI50 (MDA-MB-435 melanoma): > 100 µM | TGI (MDA-MB-435 melanoma): > 100 µM | GI50 (U251 glioblastoma): > 100 µM | TGI (U251 glioblastoma): > 100 µM | GI50 (EKVX NSCLC): > 100 µM | TGI (EKVX NSCLC): > 100 µM | GI50 (MCF7 breast): > 36.8 µM | TGI (MCF7 breast): > 100 µM | GI50 (RPMI-8226 leukemia): 61.6 µM | TGI (RPMI-8226 leukemia): > 100 µM | GI50 (RXF 393 renal): > 100 µM | TGI (RXF 393 renal): > 100 µM | GI50 (CCRF-CEM leukemia): > 100 µM | TGI (CCRF-CEM leukemia): > 100 µM | GI50 (A498 renal): > 100 µM | TGI (A498 renal): > 100 µM | GI50 (SF-268 CNS): > 100 µM | TGI (SF-268 CNS): > 100 µM | GI50 (K-562 leukemia): > 100 µM | TGI (K-562 leukemia): > 100 µM | GI50 (CAKI-1 renal): > 100 µM | TGI (CAKI-1 renal): > 100 µM | GI50 (IGROV1 ovarian): > 100 µM | TGI (IGROV1 ovarian): > 100 µM | GI50 (SK-MEL-2 melanoma): > 100 µM | TGI (SK-MEL-2 melanoma): > 100 µM
